Laboratory results published in patent EP3501490A1, “COMPOSITION FOR EXTERNAL USE THAT INCLUDES PTEROSTILBENE GLYCOSIDE” (Tomoike Industrial (H.K.) Limited, priority 2016, dated 2018).

Assays:
type IV collagen gene = experiment: Type IV collagen mRNA expression in human skin cells by microarray method (Experimental Example 1); format: cell-based; conditions: 120 h, cultured for 5 days, hTERT-immortalized human skin cells, read-out: increase of the expression amount of type IV collagen gene compared to the negative control experiment
Description: Human skin cells were immortalized by introducing the hTERT gene and acclimated in a predetermined medium, Prigrow III (APB). Thereafter, the pterostilbene monoglucoside (50 µM) was added to the conditioned medium and cultured for 5 days in a 5% CO2 environment at 37°C.
RNA was collected from the cells after culturing, and changes in the amount of type IV collagen mRNA expression were analyzed by microarray method. […] A negative control experiment was also performed in which the pterostilbene monoglucoside was not added to the conditioned medium.

type IV collagen = experiment: Type IV collagen protein expression in three-dimensional skin model by western blotting and densitometry (Experimental Examples 2 and 5); format: cell-based; conditions: Homo sapiens, 168 h; 25 µM and 100 µM final concentrations, 7 days; at most (maximum), concentration dependent; α-tubulin internal standard; read-out: increase of the amount of type IV collagen expression in the three-dimensional skin model compared to the control
Description: The three-dimensional skin model produced following the protocol of the kit was acclimated in the medium supplied with the kit.
The cells after culturing were collected, lysates thereof were subjected to western blotting using an anti-human collagen antibody (COL4A3BP; Abcam), and the amount of type IV collagen protein expression was analyzed. Further, western blotting using an anti-α-tubulin antibody as the internal standard was also performed, and the obtained image data was subjected to densitometry analysis.
These solutions were added to three-dimensional skin models and cultured for 7 days. The lysates of cells after culturing were subjected to western blotting using an anti-human collagen antibody, and the amounts of type IV collagen expression in the cells were analyzed. As a negative control (Ctrl), an experiment was performed in which a DMSO solution was added alone to the three-dimensional skin model.
Further, western blotting using an anti-α-tubulin antibody as the internal standard was also performed, and the obtained image data was subjected to densitometry analysis.

[1] = target: T1, Tyrosinase (Cat. No. T3824, SIGMA) (Agaricus bisporus, UniProt C7FF04); experiment: In vitro tyrosinase inhibition experiment (Experimental Example 3); format: biochemical; conditions: fold more excellent than the aglycone pterostilbene, based on IC50 values of Fig. 3
T1 construct: purchased SIGMA T3824
Description: The tyrosinase inhibitory effect of pterostilbene monoglucoside was analyzed (IC50 values were measured) based on a generally known method (e.g., Expert Opin Ther Pat. 2016; 26(3): 347-62). Tyrosinase (Cat. No. T3824, SIGMA) was used as tyrosinase. Further, pterostilbene (produced by Tokyo Chemical Industry Co., Ltd.; A in the figure), the pterostilbene monoglucoside above (B in the figure), and arbutin as a positive control (C in the figure) were used.

T1 sequence (C7FF04 2-392 limits assumed): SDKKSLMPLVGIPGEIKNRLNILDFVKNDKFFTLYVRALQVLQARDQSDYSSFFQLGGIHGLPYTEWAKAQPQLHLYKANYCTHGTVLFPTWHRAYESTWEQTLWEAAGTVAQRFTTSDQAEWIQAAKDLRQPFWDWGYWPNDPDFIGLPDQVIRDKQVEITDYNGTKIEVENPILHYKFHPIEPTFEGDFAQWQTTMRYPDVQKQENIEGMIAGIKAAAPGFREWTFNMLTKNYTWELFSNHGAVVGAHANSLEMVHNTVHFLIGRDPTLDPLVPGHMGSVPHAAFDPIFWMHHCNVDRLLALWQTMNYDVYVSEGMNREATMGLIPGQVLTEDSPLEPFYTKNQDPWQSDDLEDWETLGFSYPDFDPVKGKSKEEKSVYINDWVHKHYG

With COc1cc(/C=C/c2ccc(OC3O[C@H](CO)[C@@H](O)[C@H](O)[C@H]3O)cc2)cc(OC)c1 (stereo partly drawn) [pterostilbene monoglucoside] the fold induction at 50 µM (type IV collagen gene) was ~1.35, the maximal fold induction (type IV collagen) was ~2.5 and the “tyrosinase inhibitory effect relative to pterostilbene (comparison of IC50 values)” value [1] was ~5.5 times.
